Key:
F331, BEC, HaCat cells = assay: 72 h cell viability (MTT) assay, non-malignant cell types; assay type: cell-based, human
Experimental: (§1) Cells were seeded (3–4 ×10^3 cells/well) in 96-well plates in 100 µL and after 24 h recovery treated with 100 µL of compounds at the indicated concentrations in triplicates. After 72 h drug exposure cell viability was determined by 3-(4,5-dimethylthiazol-2-yl)-2,5-diphenyltetrazolium bromide (MTT)-vitality assay (EZ4U, Biomedica, Vienna, Austria) following the manufacturer’s recommendations, as published. Absorbance was measured at 450 nm (at 620 nm as reference) using the multimode plate reader Tecan Infinite 200 Pro (Zurich, Switzerland). Cytotoxicity was expressed as IC50 values calculated from full dose-response curves using the 4 parameter nonlinear regression model of GraphPad Prism 8 software (La Jolla, CA, USA).

[1] = Aqueous stability in phosphate buffer by UHPLC; assay type: physicochemical; settings: for UHPLC peak integral, stability: method A
Experimental: (§2) For stability measurements BSO-OxOAc (1 mM) was dissolved in phosphate buffer (100 mM, pH 7.4). For reduction experiments BSO-OxOAc (2 mM) was dissolved in phosphate buffer (500 mM, pH 7.4). A 20 mM solution of AA in the same buffer was added in a 1:1 ratio. The samples were immediately measured on a Dionex UltiMate 3000 RS UHPLC system equipped with a Waters Acquity UPLC® BEH C18 column (3×50 mm, pore size 1.7 µm), and absorption detection at 230 nm with incubation at 20 °C (Gradients: Method A: 0.0−0.5 min: 5% eluent B in eluent A; 0.5–5.5 min: 5-95% eluent B; 5.5–8.0 min: 95 % eluent B (eluent A = 0.1% formic acid in water, eluent B = 0.1 % formic acid in acetonitrile), method B: 0.0 − 0.5 min: 5% eluent B in eluent A; 0.5–5.5 min: 5-95% eluent B; 5.5–7.1 min: 95 % eluent B (eluent A = 0.1% formic acid in water, eluent B = 0.1 % formic acid in methanol). Data points were taken every 30 min for 6 h and at 24 h and 24.5 h.

A2780 cells = assay: 72 h cell viability (MTT) assay; assay type: cell-based, human; settings: A2780, 72 h continuous exposure; read-out: IC50 value (95% confidence interval)
Experimental: as §1

HCT116 cells = assay: 72 h cell viability (MTT) assay; assay type: cell-based, human; settings: HCT116, 72 h continuous exposure; read-out: IC50 value (95% confidence interval)
Experimental: as §1

A2780/Cis cells = assay: 72 h cell viability (MTT) assay; assay type: cell-based, human
Experimental: as §1

[2] = system: HCT116 and HCT116/OxR cells; assay: In vitro platinum cell uptake by ICP-MS; assay type: cell-based, human; settings: 3 h exposure
Experimental: Cells were seeded at 1.5 ×10^5 cells/well in six-well plates in 1.5 mL and after 24 h recovery treated with 500 µL of compounds at the indicated concentrations in triplicates. After 3 h drug exposure, cells were detached, washed twice with phosphate-buffered saline (PBS), dried at RT for 15 min and lysed in 100 µL HNO3 (69%, Rotipuran Supra, Carl Roth, Karlsruhe, Germany) for 1 h at RT. The lysate was added to fresh tubes containing 200 µL ddH2O. ICP-MS measurements were performed with an Agilent 8800 ICP-MS/MS instrument (Agilent Technologies, Tokyo, Japan). The sample introduction system consisted of a MicroMist nebulizer (200 μL min^−1 nominal sample uptake) and a quartz double-pass spray chamber. The instrument was tuned on a daily basis in order to achieve maximum sensitivity, low oxide formation, and low doubly charged ratios. Platinum was monitored in no gas mode with an integration time of 0.3 s. The flow injection measurements were performed with a bioinert HPLC 1260 (Agilent Technologies, Waldbronn, Germany), which was directly connected to the nebulizer of the ICP-MS/MS instrument with a PEEK tubing. The following chromatographic conditions were used: injection volume: 10 µL; flow rate: 0.30 mL min^-1; isocratic elution; CH3COONH4 (50 mM, pH = 6.8) aqueous solution was employed as mobile phase. The data were recorded and evaluated with the Agilent MassHunter Chromatography software package, MassHunter 4.6., 2019.

[3] = Reduction kinetics with 10-fold excess of ascorbic acid by UHPLC; assay type: physicochemical; settings: 10 mM AA; for UHPLC peak integral, reduction: method B
Experimental: as §2

albumin = molecular target: T1, albumin (Bos taurus, UniProt P02769); assay: Albumin binding in fetal calf serum by SEC-ICP-MS; assay type: in vitro ADME; settings: fetal calf serum 37 °C, 100 μM
T1 construct: tissue Sigma-Aldrich; host or cells: fetal calf serum
Experimental: Fetal calf serum was purchased from Sigma-Aldrich and buffered with 150 mM phosphate buffer (pH 7.4) to guarantee a stable pH. The platinum(IV) complexes were dissolved in 150 mM phosphate buffer (pH 7.4) to 1 mM and diluted 1:10 in serum to obtain a final concentration of 100 μM. The samples were then incubated in the autosampler at 37 °C for 24 h and analyzed at 0 h, 1 h, 4 h, and 24 h. Between each sample, a pure water blank was measured. For SEC-ICP-MS measurements, an Agilent 1260 Infinity system coupled to an Agilent 7800 ICP-MS equipped with a dynamic reaction cell was used. Oxygen (purity 5.5, Messer AustriaGmbH, Gumpoldskirchen, Austria) was used as reaction gas at 30% and 0.9 L/min flow.

HCT116/OxR cells = assay: 72 h cell viability (MTT) assay; assay type: cell-based, human
Experimental: Absorbance was measured at 450 nm (at 620 nm as reference) using the multimode plate reader Tecan Infinite 200 Pro (Zurich, Switzerland). Cytotoxicity was expressed as IC50 values calculated from full dose-response curves using the 4 parameter nonlinear regression model of GraphPad Prism 8 software (La Jolla, CA, USA).

[4] = system: HCT116, HCT116/OxR, A2780, A2780/Cis cells; assay: 72 h cell viability (MTT) assay, all malignant cell models; assay type: cell-based, human
Experimental: as §1

T1 sequence (P02769 25-607): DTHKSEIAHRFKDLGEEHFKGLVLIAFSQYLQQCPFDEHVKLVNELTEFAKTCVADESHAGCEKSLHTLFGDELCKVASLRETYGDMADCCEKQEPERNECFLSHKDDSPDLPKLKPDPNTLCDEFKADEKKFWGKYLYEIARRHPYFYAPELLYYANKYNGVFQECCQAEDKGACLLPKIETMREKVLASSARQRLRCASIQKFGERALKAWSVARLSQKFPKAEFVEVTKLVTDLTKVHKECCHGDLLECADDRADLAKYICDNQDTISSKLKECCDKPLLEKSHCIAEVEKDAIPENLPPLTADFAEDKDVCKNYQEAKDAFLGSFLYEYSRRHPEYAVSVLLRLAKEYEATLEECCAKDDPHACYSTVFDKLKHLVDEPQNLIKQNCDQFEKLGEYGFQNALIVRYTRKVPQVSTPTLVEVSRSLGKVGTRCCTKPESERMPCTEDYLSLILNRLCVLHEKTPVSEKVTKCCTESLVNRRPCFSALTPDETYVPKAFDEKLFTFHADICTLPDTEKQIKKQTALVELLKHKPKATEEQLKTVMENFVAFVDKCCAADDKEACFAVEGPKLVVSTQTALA

In the case of `CCCCS(=N)(=O)CCC(NC(=O)[O][Pt]1([O]C(C)=O)[O]C(=O)C(=O)[O]1)C(=O)O.NC1CCCCC1N` (mixture of isomers) [BSO-OxOAc, (OC-6-34)-Acetato(((1 S)-3-(butylsulfonimidoyl)-1-carboxypropyl)carbamato)((1 R,2 R)-1,2-cyclohexanediamino)oxalatoplatinum(IV)], the “activity against non-malignant cell types” value (F331, BEC, HaCat cells) is reported as “widely inactive”, the “calculated half-life, aqueous stability” value ([1]; 1 mM, 100 mM phosphate buffer pH 7.4, 20 °C) is reported as ~ 240 h and the “UHPLC peak integral, stability” value ([1]; t=0, 1 mM) is reported as 70.47 mAU. The “UHPLC peak integral, stability” value ([1]; t=24 h, 1 mM) was 66.25 mAU, the IC50 (A2780 cells) was 20.6 µM and the IC50 (HCT116 cells) was 32.1 µM. The IC50 (A2780/Cis cells; A2780/Cis, 72 h continuous exposure, read-out: IC50 value (95% confidence interval)) was 28.5 µM, the resistance factor (A2780/Cis cells; IC50 A2780/Cis divided by IC50 A2780) was 1.4 and the “intracellular accumulation in HCT116/OxR as compared to parental HCT116” value [2] was “only non-significantly altered”. For the same compound, the “overall cellular platinum accumulation compared between compounds” value ([2]; both cell models) was “distinctly lower than of oxaliplatin”, the t½ reduction kinetics ([3]; 1 mM complex, 500 mM phosphate buffer pH 7.4, 20 °C) was ~ 51 h and the “UHPLC peak integral, reduction” value ([3]; t=0, 1 mM) was 11.87 mAU. The “UHPLC peak integral, reduction” value ([3]; t=24 h, 1 mM) was 9.1 mAU, the “bound to albumin fraction” value (albumin; t 0 h) was 0% and the “free (low molecular weight fraction)” value (albumin; t 0 h) was 100%. The “bound to albumin fraction” value (albumin; t 1 h) was 0%, the “free (low molecular weight fraction)” value (albumin; t 1 h) was 100% and the “bound to albumin fraction” value (albumin; t 4 h) was 0%. For the same compound, the “free (low molecular weight fraction)” value (albumin; t 4 h) was 100%, the “bound to albumin fraction” value (albumin; t 24 h) was 0% and the “free (low molecular weight fraction)” value (albumin; t 24 h) was 100%. For the same compound, the IC50 (HCT116/OxR cells; HCT116/OxR, 72 h continuous exposure, read-out: IC50 value (95% confidence interval)) was 95.5 µM, the resistance factor (HCT116/OxR cells; IC50 HCT116/OxR divided by IC50 HCT116) was 2.9 and the “enhancement of IC50 values as compared to oxaliplatin” value [4] was 10- to 50 fold.
